Values joined by “and” are separate entries in the source; they are usually repeats but may differ in a detail not shown here. Identical values can stand only once. Values belong to the molecule of their own block, whether it stands above or below them.
Columns and labels:
CYP 2C19 = CYP 2C19 (Homo sapiens, UniProt P33261); assay: Kinetics of fluorogenic substrates with CYP 2C19; assay type: biochemical; details: for v (1.25 uM), turnover rate at 1.25 μM: CYP 2C19, substrate 1.25 uM; for v (10 uM), turnover rate at 10 μM: CYP 2C19, substrate 10 uM
CYP 2B6 = target: T1, CYP 2B6 (Homo sapiens, UniProt P20813)
T1 sequence (P20813 1-491): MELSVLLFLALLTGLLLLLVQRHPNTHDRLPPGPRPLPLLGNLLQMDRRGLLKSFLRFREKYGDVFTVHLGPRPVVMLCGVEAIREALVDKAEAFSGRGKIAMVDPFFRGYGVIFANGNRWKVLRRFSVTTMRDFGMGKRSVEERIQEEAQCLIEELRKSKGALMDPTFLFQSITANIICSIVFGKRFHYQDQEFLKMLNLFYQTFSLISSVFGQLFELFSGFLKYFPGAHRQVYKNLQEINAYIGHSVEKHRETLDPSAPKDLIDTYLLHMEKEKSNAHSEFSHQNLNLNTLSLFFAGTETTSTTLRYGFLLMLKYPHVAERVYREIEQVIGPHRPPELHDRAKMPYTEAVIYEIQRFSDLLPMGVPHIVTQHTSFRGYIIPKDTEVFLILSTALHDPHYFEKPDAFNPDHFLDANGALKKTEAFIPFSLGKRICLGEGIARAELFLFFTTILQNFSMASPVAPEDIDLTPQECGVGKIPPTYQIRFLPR

CYP 2C9 = CYP 2C9 (Homo sapiens, UniProt P11712); assay: Kinetics of fluorogenic substrates with CYP 2C9; assay type: biochemical; details: for conversion to the same fluorescent product vs the most closely structurally-related substrate / kcat / kcat/Km / type of kinetics: CYP 2C9; for v (1.25 uM), turnover rate at 1.25 μM: CYP 2C9, substrate 1.25 uM; for v (10 uM), turnover rate at 10 μM: CYP 2C9, substrate 10 uM
CYP 2D6 = CYP 2D6 (Homo sapiens, UniProt P10635); assay: Kinetics of fluorogenic substrates with CYP 2D6; assay type: biochemical; details: for v (1.25 uM), turnover rate at 1.25 μM: CYP 2D6, substrate 1.25 uM; for v (10 uM), turnover rate at 10 μM: CYP 2D6, substrate 10 uM; for conversion to the same fluorescent product vs the most closely structurally-related substrate: CYP 3A4 and CYP 2D6, Table 8
CYP 3A4 [1] = target: T2, CYP 3A4 (Homo sapiens, UniProt P08684); assay: Kinetics of fluorogenic substrates with CYP 3A4; assay type: biochemical
T2 construct: NADPH regenerating system
From the text: Whichever of the four abstractable hydrogen atoms (designated H^1 and H^2 in this representation of BOMR) is removed in the initial reaction step, with reference to Reaction Scheme 1 of FIG. 1, the hydroxylation product will spontaneously decompose to the free resorufin dye. In addition, the benzyloxy group, attached to the carbon carrying the two hydrogens designated H^2, contributes an inductive electronic effect on that carbon, which can stabilize the radical formed during abstraction of one of the H^2 hydrogens by a cytochrome P450.
Optimization of assay conditions was, and is preferably, accomplished through statistically validated Design of Experiments methodologies, using the commercial software package "Design-Expert®" produced by Stat-Ease® Inc. The data shown in FIGS. 4 and 5 were obtained with initial optimization.
For further understanding these terms in the context of this invention, attention is directed to FIG. 4 and the analysis of FIG. 4.

CYP 3A4 [2] = target: T2, CYP 3A4; assay: Rate of hydroxylation of BOM-09B by CYP 3A4; assay type: biochemical
Experimental: The racemic compound mixture (designated BOM-09B) was tested for activity with cytochrome P450 isozymes. […] The CYP 3A4 assay was performed in a 96-well plate at 37° C. in a volume of 100 μL/well. BOM-09B was diluted from a stock solution of 1 mM in acetonitrile to a 4×concentration of 80 μM in 100 mM K+ phosphate buffer of which 25 μl was added to the appropriate wells. […] The cytochrome P450 isozyme CYP3A4 was diluted to give a 2 pmol enzyme per well. Enzymic conversion of the substrate to products was allowed to proceed for 1 hour with fluorescence reads taken every 4 minutes on a fluorescence microtiter plate reader. The solution was illuminated with an 395/25 nm excitation filter and fluorescence emission was detected through a 460/40 nm the emission filter.

CYP 1A2 = target: T3, CYP 1A2 (Homo sapiens, UniProt P05177); assay: Kinetics of fluorogenic substrates with CYP 1A2; assay type: biochemical
T3 sequence (P05177 1-516): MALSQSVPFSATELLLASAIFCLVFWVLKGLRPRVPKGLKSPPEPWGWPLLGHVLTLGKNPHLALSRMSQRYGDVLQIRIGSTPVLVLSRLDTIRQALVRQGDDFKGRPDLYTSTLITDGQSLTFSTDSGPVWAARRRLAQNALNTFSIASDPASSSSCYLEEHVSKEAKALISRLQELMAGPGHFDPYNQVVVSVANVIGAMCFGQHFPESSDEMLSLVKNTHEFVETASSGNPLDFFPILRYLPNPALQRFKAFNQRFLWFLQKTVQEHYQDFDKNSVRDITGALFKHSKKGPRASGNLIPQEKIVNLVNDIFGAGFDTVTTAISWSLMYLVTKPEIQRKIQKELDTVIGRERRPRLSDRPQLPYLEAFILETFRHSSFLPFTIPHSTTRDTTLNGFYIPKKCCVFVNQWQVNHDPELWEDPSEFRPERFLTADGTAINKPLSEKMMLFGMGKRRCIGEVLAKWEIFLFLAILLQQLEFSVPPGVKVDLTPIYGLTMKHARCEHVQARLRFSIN

[3] = substrate: COCOc1ccc2c(C(F)(F)F)cc(=O)oc2c1; assay: Kinetics of fluorogenic substrates with CYP 2C9; assay type: biochemical, human; details: other: CYP 2C9
[4] = substrate: COc1ccc2c(C(F)(F)F)cc(=O)oc2c1; assay: Kinetics of fluorogenic substrates with CYP 2C9; assay type: biochemical, human; details: other: CYP 2C9
[5] = substrate: N#Cc1cc2ccc(OCOCc3ccccc3)cc2oc1=O; assay: Kinetics of fluorogenic substrates with CYP 2C9; assay type: biochemical, human; details: other: CYP 2C9

CYP 2D6, sequence (P10635 whole entry): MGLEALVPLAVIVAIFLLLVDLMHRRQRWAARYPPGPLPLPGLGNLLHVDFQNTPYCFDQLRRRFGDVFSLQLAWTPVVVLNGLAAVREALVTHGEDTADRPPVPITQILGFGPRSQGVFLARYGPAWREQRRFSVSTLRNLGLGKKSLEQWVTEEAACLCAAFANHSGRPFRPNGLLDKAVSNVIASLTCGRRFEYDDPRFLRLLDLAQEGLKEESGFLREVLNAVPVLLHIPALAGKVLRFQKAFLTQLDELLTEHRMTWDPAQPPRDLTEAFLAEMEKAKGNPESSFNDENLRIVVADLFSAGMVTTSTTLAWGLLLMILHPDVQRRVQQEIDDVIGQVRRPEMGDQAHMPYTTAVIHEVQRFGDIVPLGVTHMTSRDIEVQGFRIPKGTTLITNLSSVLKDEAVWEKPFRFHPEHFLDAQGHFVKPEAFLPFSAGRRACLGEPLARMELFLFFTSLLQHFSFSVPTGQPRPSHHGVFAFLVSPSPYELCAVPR
T2 sequence (P08684 whole entry): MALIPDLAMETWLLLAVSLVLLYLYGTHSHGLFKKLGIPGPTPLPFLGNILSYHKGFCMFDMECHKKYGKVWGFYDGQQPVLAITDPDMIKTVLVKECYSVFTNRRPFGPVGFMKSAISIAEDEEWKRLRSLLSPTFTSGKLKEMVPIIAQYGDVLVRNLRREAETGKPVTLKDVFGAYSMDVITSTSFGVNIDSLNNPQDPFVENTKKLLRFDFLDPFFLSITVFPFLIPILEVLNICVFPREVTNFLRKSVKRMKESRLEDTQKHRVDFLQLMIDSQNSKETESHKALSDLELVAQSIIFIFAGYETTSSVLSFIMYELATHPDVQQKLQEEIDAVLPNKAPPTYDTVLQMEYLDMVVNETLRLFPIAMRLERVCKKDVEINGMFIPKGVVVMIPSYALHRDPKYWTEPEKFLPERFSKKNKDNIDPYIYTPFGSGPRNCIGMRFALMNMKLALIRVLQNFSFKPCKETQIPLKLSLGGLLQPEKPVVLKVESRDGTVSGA
CYP 2C19, sequence (P33261 whole entry): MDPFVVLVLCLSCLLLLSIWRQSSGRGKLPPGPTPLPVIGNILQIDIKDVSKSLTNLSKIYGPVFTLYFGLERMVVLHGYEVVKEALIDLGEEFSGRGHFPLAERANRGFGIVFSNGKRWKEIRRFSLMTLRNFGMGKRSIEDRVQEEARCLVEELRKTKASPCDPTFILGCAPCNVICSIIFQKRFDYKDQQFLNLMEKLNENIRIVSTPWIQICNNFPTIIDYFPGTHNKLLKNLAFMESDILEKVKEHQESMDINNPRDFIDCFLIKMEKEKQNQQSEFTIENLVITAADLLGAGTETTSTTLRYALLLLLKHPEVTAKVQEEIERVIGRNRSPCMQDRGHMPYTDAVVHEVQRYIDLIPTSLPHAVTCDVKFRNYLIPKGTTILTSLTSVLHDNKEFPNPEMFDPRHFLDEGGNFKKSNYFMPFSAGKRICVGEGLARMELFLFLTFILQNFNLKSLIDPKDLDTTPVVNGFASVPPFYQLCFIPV

Molecule: NC1CCCCC1NC(=O)c1cc2ccc(OCOCc3ccccc3)cc2oc1=O (racemic) [BOM-09B]
activity with the CYP 3A4 isozyme (CYP 3A4 [2]): particularly high activity | conversion rate (CYP 3A4 [2]; 37° C., pH 8.0, 1 hour): 0.75 pmol substrate/pmol enzyme·min | rate of conversion compared with BOMCC (CYP 3A4 [2]; identical conditions): half that of BOMCC

Molecule: CCOCOc1ccc2cc(C#N)c(=O)oc2c1 [EOMCC]
conversion to the same fluorescent product vs the most closely structurally-related substrate (CYP 2C19; CYP 2C19): more efficient conversion | kcat (CYP 2C19; CYP 2C19): 0.095 s⁻¹ | kcat/Km (CYP 2C19; CYP 2C19): 5723 M⁻¹ s⁻¹ | type of kinetics (CYP 2C19; CYP 2C19): Michaelis- | v (1.25 uM), turnover rate at 1.25 μM (CYP 2C19): 0.34 min⁻¹ | v (10 uM), turnover rate at 10 μM (CYP 2C19): 2.22 min⁻¹ | conversion to the corresponding fluorescent product vs 3CEC (CYP 1A2; CYP 1A2): a little bit more efficiently | kcat (CYP 1A2; CYP 1A2): 0.35 s⁻¹ | kcat/Km (CYP 1A2; CYP 1A2): 31818 M⁻¹ s⁻¹ | type of kinetics (CYP 1A2; CYP 1A2): Michaelis- | v (1.25 uM), turnover rate at 1.25 μM (CYP 1A2; CYP 1A2, substrate 1.25 uM): 1.77 min⁻¹ | v (10 uM), turnover rate at 10 μM (CYP 1A2; CYP 1A2, substrate 10 uM): 9.95 min⁻¹

B1: CYP 2C9 (Homo sapiens) (protein)
chain: MDSLVVLVLCLSCLLLLSLWRQSSGRGKLPPGPTPLPVIGNILQIGIKDISKSLTNLSKVYGPVFTLYFGLKPIVVLHGYEAVKEALIDLGEEFSGRGIFPLAERANRGFGIVFSNGKKWKEIRRFSLMTLRNFGMGKRSIEDRVQEEARCLVEELRKTKASPCDPTFILGCAPCNVICSIIFHKRFDYKDQQFLNLMEKLNENIKILSSPWIQICNNFSPIIDYFPGTHNKLLKNVAFMKSYILEKVKEHQESMDMNNPQDFIDCFLMKMEKEKHNQPSEFTIESLENTAVDLFGAGTETTSTTLRYALLLLLKHPEVTAKVQEEIERVIGRNRSPCMQDRSHMPYTDAVVHEVQRYIDLLPTSLPHAVTCDIKFRNYLIPKGTTILISLTSVLHDNKEFPNPEMFDPHHFLDEGGNFKKSKYFMPFSAGKRICVGEALAGMELFLFLTSILQNFNLKSLVDPKNLDTTPVVNGFASVPPFYQLCFIPV
Km [3]: 14.9 µM | kcat/Km [3]: 157 M⁻¹ s⁻¹ | Km [4]: 103.0 µM | kcat [4]: 0.0067 s⁻¹ | kcat/Km [4]: 70 M⁻¹ s⁻¹ | Km [5]: 3.0 µM | kcat/Km [5]: 814 M⁻¹ s⁻¹

More lines, now with the values ahead:

type of kinetics (CYP 2C19; CYP 2C19): not MMK | v (1.25 uM), turnover rate at 1.25 μM (CYP 2C19): 1.26 min⁻¹ | v (10 uM), turnover rate at 10 μM (CYP 2C19): 0.69 min⁻¹ | kcat (CYP 2B6): 0.0067 s⁻¹ | kcat/Km (CYP 2B6): 58333 M⁻¹ s⁻¹ | type of kinetics (CYP 2B6): Michaelis- | v (1.25 uM), turnover rate at 1.25 μM (CYP 2B6): 0.08 min⁻¹ | v (10 uM), turnover rate at 10 μM (CYP 2B6): 0.10 min⁻¹ | Km (CYP 2B6; cyp 2b6): 0.1 µM | conversion to the same fluorescent product vs the most closely structurally-related substrate (CYP 2C9): more efficient conversion | kcat (CYP 2C9): 0 s⁻¹ | kcat/Km (CYP 2C9): 952 M⁻¹ s⁻¹ | type of kinetics (CYP 2C9): Michaelis- | v (1.25 uM), turnover rate at 1.25 μM (CYP 2C9): 0.02 min⁻¹ | v (10 uM), turnover rate at 10 μM (CYP 2C9): 0.02 min⁻¹ | kcat/Km (CYP 2D6; CYP 2D6): 263 M⁻¹ s⁻¹ | type of kinetics (CYP 2D6; CYP 2D6): Michaelis- | v (1.25 uM), turnover rate at 1.25 μM (CYP 2D6): 0.0185 min⁻¹ and 0.02 min⁻¹ | v (10 uM), turnover rate at 10 μM (CYP 2D6): 0.0409 min⁻¹ and 0.04 min⁻¹ | conversion to the same fluorescent product vs the most closely structurally-related substrate (CYP 2D6): more efficient conversion
Molecule: COc1ccc(COc2ccc3nc4ccc(=O)cc-4oc3c2)cc1 [MOBR, Paramethoxybenzylresorufin]

conversion to the same fluorescent product vs the most closely structurally-related substrate (CYP 2C9): more efficient conversion | kcat (CYP 2C9): 0.00483 s⁻¹ and 0.005 s⁻¹ | kcat/Km (CYP 2C9): 628 M⁻¹ s⁻¹ | type of kinetics (CYP 2C9): Michaelis- | v (1.25 uM), turnover rate at 1.25 μM (CYP 2C9): 0.02 min⁻¹ | v (10 uM), turnover rate at 10 μM (CYP 2C9): 0.188 min⁻¹ and 0.19 min⁻¹ | kcat (CYP 2D6; CYP 2D6): 0.01 s⁻¹ | kcat/Km (CYP 2D6; CYP 2D6): 2067 M⁻¹ s⁻¹ | type of kinetics (CYP 2D6; CYP 2D6): Michaelis- | v (1.25 uM), turnover rate at 1.25 μM (CYP 2D6): 0.09 min⁻¹ | v (10 uM), turnover rate at 10 μM (CYP 2D6): 0.49 min⁻¹ | conversion to the same fluorescent product vs the most closely structurally-related substrate (CYP 2D6): more efficient conversion | kcat (CYP 3A4 [1]; CYP 3A4): 0.012 s⁻¹ | kcat/Km (CYP 3A4 [1]; CYP 3A4): 897 M⁻¹ s⁻¹ | type of kinetics (CYP 3A4 [1]; CYP 3A4): Michaelis- | v (1.25 uM), turnover rate at 1.25 μM (CYP 3A4 [1]; CYP 3A4, substrate 1.25 uM): 0.0214 min⁻¹ and 0.02 min⁻¹ | v (10 uM), turnover rate at 10 μM (CYP 3A4 [1]; CYP 3A4, substrate 10 uM): 0.3453 min⁻¹ and 0.35 min⁻¹
Molecule: COc1ccc(COc2ccc3c(C(F)(F)F)cc(=O)oc3c2)cc1 [MOBFC]

Source: patent publication US6143492A, “Optical molecular sensors for cytochrome P450 activity” (Aurora Biosciences Corporation, priority 1999, dated 2000)
